Assay results published in US9586896B2, “Nitroxyl donors with improved therapeutic index” (Cardioxyl Pharmaceuticals, Inc., priority 2013, dated 2017).

Key:
[1] = system: heart failure canines (tachycardia-pacing model); experiment: Hemodynamic efficacy in heart failure canines (tachycardia-pacing model); type: in vivo, beagle dogs; conditions: for hemodynamic activity relative to CXL-1020: both normal and failing canine models; for hemodynamic effects produced: normal and failing canine models, FIGS. 1-2
Experimental: The cardiovascular effects of nitroxyl donors were examined by means of pressure-volume (PV) curve (loops) analysis in conscious, sling-restrained beagle dogs. Animals were allowed free access to drinking water and a commercial canine diet under standard laboratory conditions. Fluorescent lighting was provided via an automatic timer for approximately 12 hours per day. On occasion, the dark cycle was interrupted intermittently due to study-related activities. Temperature and humidity were monitored and recorded daily and maintained to the maximum extent possible between 64° F. and 84° F. and 30% to 70%, respectively. The dogs were acclimated for a period of at least 1 week prior to surgery. Following surgery and recovery the animals were acclimated to sling restraint for a period up to 4.5 hours. Animals were fasted overnight prior to surgery.
Once a stable (surgical) plane of anesthesia had been established, a left-thoracotomy was performed (under strict aseptic conditions) and each animal was chronically instrumented with sono-micrometry crystals providing left-ventricular (LV) dimensions/volume. Additionally, a fluid-filled catheter and a solid-state monometer were placed in the left ventricle for pressure monitoring. A fluid-filled catheter was placed in the right ventricle (RV) and the aorta (Ao) for pressure monitoring/test article administration. […] The catheters/wires were aseptically tunneled and externalized between the scapulae. Over the course of the study, fluid-filled catheters were regularly (at least once weekly) flushed with a locking-solution in order to prevent both clotting and bacterial growth (2-3 mL of Taurolidine-Citrate solution, TCS-04; Access Technologies).
Following the cardiovascular instrumentation, the right jugular vein was carefully exposed and cannulated with a bipolar pacing lead/catheter (CAPSUREFIX® Novus; Medtronic). Under fluoroscopic guidance, this pacing lead was advanced normograde into the right ventricle and actively affixed (screwed in) to the apical endocardium. The proximal end of the lead was secured to the pacing device (Kappa 900; Medtronic). Subsequently, the pacemaker was placed/secured in a subcutaneous pocket in the neck.
Following a recovery from surgery and/or sufficient washout period from dosing with a nitroxyl donor, animals were subjected to a 3-week overdrive pacing (210 ppm) protocol aimed to trigger left-ventricular dysfunction/remodeling consistent with the heart failure syndrome. In short, via the implanted pacemaker/right-ventricular lead, the ventricle(s) was asynchronously and continuously paced at 210 beats per minute (bpm). Left-ventricular remodeling (and heart failure induction) were confirmed by both echocardiographic (e.g., ejection fraction (EF)) decrease from about 60% to a target of about 35%, left ventricular (LV) dilatation) and neuro-humoral (e.g., N-terminal pro-brain natriuretic peptide (NT proBNP) elevation to greater than 1800 pM/L from a baseline of about 300 pM/L) changes after approximately 3 weeks of pacing. Echocardiographs and blood samples were collected in the absence of pacing (for at least 15 min).
The animals (normal or heart failure) were studied during treatment with both vehicle (control) and a nitroxyl donor (either CXL-1020, a compound of formula (1) or a compound of formula (2)). At each dosing period, conscious sling-restrained animals were continuously monitored for up to two to three hours. Following hemodynamic stabilization, infusion of the vehicle was started. […] Infusion of the vehicle was continued and after 30 min another (baseline) set of hemodynamic data was collected. Following collection of baseline hemodynamic data, infusion of the nitroxyl donor compound being tested was initiated and derived hemodynamic/functional parameters were obtained/performed at up to four (4) time points selected from the following: at 30, 60, 90, 120, and 180 minutes after the onset of vehicle/test compound infusion. […]

beagle dogs = experiment: 24-hour continuous infusion, canine peripheral (cephalic) vein model, clinical pathology; type: in vivo; conditions: for NOAEL (μg/kg/min), clinical pathology markers: 24 hour i.v. infusion, CAPTISOL 7% w/v pH 4, WBC, fibrinogen, CRP, molar equivalent dose rates to CXL-1020
Experimental: After 24 hours of infusion, clinical pathology changes similar to those observed in previous studies using an implanted central catheter were detected.
Studies were conducted in male and female beagle dogs. Animals were allowed free access to drinking water and a commercial canine diet under standard laboratory conditions. Animals were fasted prior to blood sample collections when indicated by the study protocol. Fluorescent lighting was provided via an automatic timer for approximately 12 hours per day. On occasion, the dark cycle was interrupted intermittently due to study-related activities. Temperature and humidity were monitored and recorded daily and maintained to the maximum extent possible between 64° F. to 84° F. and 30% to 70%, respectively. The dogs were acclimated for a period of at least 1 week. During this period, the animals were weighed weekly and observed with respect to general health and any signs of disease. The animals were acclimated to wearing a jacket for at least three days prior to dose administration. Additionally, the animals were also acclimated to wearing an Elizabethan collar (e-collar) during the jacket acclimation.
Animals were catheterized the day prior to dose administration. A percutaneous catheter was placed (using aseptic technique and sterile bandaging) in the cephalic vein distal to the elbow. The animals were free-moving in their cages during continuous infusion dose administration. To facilitate continuous infusion dose administration, the peripheral catheter was attached to an extension set routed underneath a canine jacket and then attached to a tether infusion system. To prevent the animals from accessing/removing the peripherally placed percutaneous catheter, the catheterization site was bandaged using Vet Wrap and an e-collar was placed on the animals for the duration of the treatment (i.e., the catheterized period). During the pretreatment period, the venous catheter was infused continuously at a rate of approximately 2-4 mL/hr with 0.9% sodium chloride for injection, USP (saline) to maintain catheter patency. Prior to dosing, the infusion system was pre-filled (slow bolus infusion) with the respective dosing solution to ensure that dosing began as soon as the infusion pump was started. The infusion line was connected to a reservoir containing the control or test compound and the infusion was started. Test compositions were infused continuously, at a predetermined constant infusion rate (1 or 2 mL/kg/hr), for 24 hours and were compared at molar equivalent dose rates.
A detailed clinical examination of each animal was performed twice daily and body temperature measurements and blood samples for clinical pathology were collected from all animals pre-dose and 6 hours, 12 hours, 24 hours and 72 hours post start of composition infusion. At the termination of the study, all animals were euthanized at their scheduled necropsy and complete necropsy examinations were performed. Selected tissues were collected, fixed and stored for potential future microscopic examination. The cephalic vein containing the infusion catheter was dissected intact along with the brachial vein and examined along its entire length. The location of the catheter tip was marked on the unfixed specimen. […]

[2] = dogs, percutaneous catheter in cephalic vein
[3] = heart failure canines, i.v. infusion, dose rate 75 (μmol/kg/min [sic])

Structure (SMILES) | HR (% Change from Baseline) ([1]; heart failure canines, i.v. infusion, dose rate 100 (μmol/kg/min [sic])) | NOAEL (μg/kg/min), clinical pathology markers (beagle dogs; dogs) | finding after 6 hours of infusion (beagle dogs; [2]) | microscopic pathology after 24 hours of infusion (beagle dogs; [2]) | hemodynamic activity relative to CXL-1020 [1] | hemodynamic effects produced [1] | EDV (% Change from Baseline) [1, 3] | ESP (% Change from Baseline) [1, 3] | ESPVR (% Change from Baseline) [1, 3] | HR (% Change from Baseline) [1, 3] | PRSW (% Change from Baseline) [1, 3] | SW (% Change from Baseline) [1, 3] | Tau (% Change from Baseline) [1, 3] | improvement in NOAEL relative to CXL-1020 (beagle dogs; clinical pathology markers)
CS(=O)(=O)c1ccccc1S(=O)(=O)NO [CXL-1020, N-hydroxy-2-methanesulfonylbenzene-1-sulfonamide] | −0.23 ± 2.25% | <0.03 μg/kg/min | significant edema was observed in the upper forelimb | severe thrombophlebitis at the catheter tip |  |  |  |  |  |  |  |  |  | 
CS(=O)(=O)c1cccc(S(=O)(=O)NO)c1 [(2), N-Hydroxy-3-methanesulfonylbenzene-1-sulfonamide] |  | 3 μg/kg/min |  |  | comparable hemodynamic activity to CXL-1020 | significant enhancement of inotropy and lusitropy, and modest reductions in blood pressure |  |  |  |  |  |  |  | 
Cc1ccc(S(=O)(=O)NO)o1 [Compound (1), N-Hydroxy-5-methylfuran-2-sulfonamide] |  |  |  |  | comparable hemodynamic activity to CXL-1020 | significant enhancement of inotropy and lusitropy, and modest reductions in blood pressure | −9 ± 2% | −17 ± 1% | 29 ± 1% | −6 ± 2% | 22 ± 1% | −9 ± 2% | −16 ± 4% | > 660 fold
